Test results published in patent publication USH505H, “Boron uptake in tumors, cerebrum and blood from [10B]NA4B24H22S2” (The United States of America as represented by the United …, priority 1986, dated 1988).

System: Harding-Passey (HP) melanomas
Test: Boron concentrations in melanoma tumor, blood and cerebrum of mice after intraperitoneal administration (prompt gamma analysis)
Parameters: species or system female BALB/cJ mice
Conditions: mouse, in vivo, ip
Experimental: Aqueous solutions of [^10 B]Na2 B12 H11 SH or [^10 B]Na4 B24 H22 S2 were infused slowly intraperitoneally [~200 μl capacity osmotic pump, model 2001, Alza Corp., Palo Alto, Calif.] or were injected intraperitoneally promptly into 15-20 g female BALB/cJ mice bearing subcutaneously implanted Harding-Passey (HP) melanomas. In experiment 6 (Table 1), 5.3×10^-3 M Na2 S2 O5 was added to retard oxidation of [B12 H11 SH]^2-. Mice were deeply anesthetized with ether and then killed by exsanguination at times specified in Table 1. The osmotic pumps were designed to function for 219±6 hr, although the precise duration of their infusion in each mouse is unknown.
Tissue and blood specimens in quartz test tubes, with sufficient H2 O added to bring each sample to a total weight of 1.00 g, were analyzed for boron by counting 478 keV gamma photons from the ^10 B(n,αγ)^7 Li reaction during irradiation by slow neutrons.

Substance: Na2 B12 H11 SH
- Blood boron concentration (34.5 mg/kg, 24 h): 6.3 ± 2.2 μgB/g
- Cerebrum boron concentration (34.5 mg/kg, 24 h): 4.9 ± 3.8 μgB/g
- Concentration ratio Tumor:Blood (34.5 mg/kg, 24 h): 1.0
- Tumor boron concentration (34.5 mg/kg, 24 h): 6.3 ± 2.2 μgB/g
- Blood boron concentration (35.4 mg/kg, 6 h): 3.8 ± 9.9 μgB/g
- Cerebrum boron concentration (35.4 mg/kg, 6 h): 3.8 ± 3.4 μgB/g
- Concentration ratio Tumor:Blood (35.4 mg/kg, 6 h): 2.3
- Tumor boron concentration (35.4 mg/kg, 6 h): 8.7 ± 9.9 μgB/g
- Blood boron concentration (35.5 mg/kg, 12 h): 5.5 ± 4.8 μgB/g
- Cerebrum boron concentration (35.5 mg/kg, 12 h): 0.9 ± 1.6 μgB/g
- Concentration ratio Tumor:Blood (35.5 mg/kg, 12 h): 1.0
- Tumor boron concentration (35.5 mg/kg, 12 h): 5.5 ± 4.8 μgB/g
- Blood boron concentration (187 mg/kg, 190 h): 13.2 ± 6.3 μgB/g
- Cerebrum boron concentration (187 mg/kg, 190 h): 7.0 μgB/g
- Concentration ratio Tumor:Blood (187 mg/kg, 190 h): 1.0
- Tumor boron concentration (187 mg/kg, 190 h): 12.6 ± 1.7 μgB/g
- Blood boron concentration (187 mg/kg, 219 h): 4.9 ± 1.1 μgB/g
- Cerebrum boron concentration (187 mg/kg, 219 h): 1.0 ± 0.4 μgB/g
- Concentration ratio Tumor:Blood (187 mg/kg, 219 h): 1.6
- Tumor boron concentration (187 mg/kg, 219 h): 7.9 ± 1.5 μgB/g
- Blood boron concentration (195 mg/kg, 219 h): 5.5 ± 3.0 μgB/g
- Cerebrum boron concentration (195 mg/kg, 219 h): 1.2 ± 1.0 μgB/g
- Concentration ratio Tumor:Blood (195 mg/kg, 219 h): 1.5
- Tumor boron concentration (195 mg/kg, 219 h): 8.5 ± 2.9 μgB/g
- Blood boron concentration (262 mg/kg, 234 h): 7.7 ± 4.6 μgB/g
- Cerebrum boron concentration (262 mg/kg, 234 h): 3.2 ± 0.0 μgB/g
- Concentration ratio Tumor:Blood (262 mg/kg, 234 h): 1.8
- Tumor boron concentration (262 mg/kg, 234 h): 14.1 ± 1.1 μgB/g
